Experimental data: patent publication US11779602B2, “Methods of use for CAR T cells” (ENDOCYTE, INC., priority 2018, dated 2023)

Tests used:
[1] = test system: target cells expressing surface folate receptor (OV90, SKOV3, IGROV1, HOS-FRα, MDA-MB-231); assay: Two day co-culture target cell kill assay (Annexin V); type: cell-based, human; details: 100 nM EC17 30 min pre-treatment, E:T 1:1, two days
Protocol: On day −1, 100,000 target cells were plated in 2 ml of growth media per well of a 12-well tissue culture plate to allow target cells to adhere and recover. On day 0, wells which received EC17 bridge molecule were treated with EC17 at 100 nM for 30 min in the tissue culture incubator. Afterwards, all media was washed off and replaced with fresh growth media free of folate and EC17. During the EC17 incubation, T cells were harvested, counted and after EC17 treatment was completed, 100,000 E2 CAR T cells were directly added onto each well of target cells in a total of 3 ml of growth media at a ratio of 1:1 (E:T) and incubated for both 1 and 2 days under standard tissue culture humidified conditions of 37° C. at 5% CO2. One day co-culture conditions were used to assay E2 CAR T cell activation by target cells and two-day incubation was used to assay target cell death. […]
To confirm that E2 CAR T cell activation also translates to successful killing of the target cells we performed a two-day co-culture assay then looked at target cell (EGFR-CD3-) events via flow cytometry and determined the percentage of target cell staining with the apoptotic surface marker, Annexin V stain. […]

MDA-MB-231 tumor = assay: Kinetics of CAR-T cell expansion and tumor uptake in MDA-MB-231 tumor bearing mice; type: in vivo
Protocol: When the tumor sizes averaged at ˜350±60 mm^3 on day 2, up to […] of EC17 at 500 nmol/kg were given on days 2, 9, 16, 23, and 30. For ex-vivo analysis, 3 animals were taken before the next EC17 dose on days 9, 16, 23, and 30 for a total of 4 collections. For comparison, the same EC17 dose was given to 3 CAR-T mice that had ˜4.4× larger tumor sizes on day 2 (˜1555±79 mm^3). For each collection, fresh blood and tumor samples (if available) were analyzed for the presence of human CD3ε+EGFRt+ CAR-T cells by flow cytometry.
The dynamic interplay between EC17 and CAR-T cells in vivo was further analyzed using MDA-MB-231 tumor model, which was previously found to be among the highest FR expressing tumors at 103±15 pmol/mg membrane protein using a ^3H-FA-based radioligand binding assay. […] Seven days following a single EC17 dose (i.e., study day 9), human CD3ε+EGFRt+ CAR-T cells were detected in the blood of mice, with elevated numbers circulating in mice bearing larger tumors (FIGS. 62B-E). […]
For CAR-T cell analysis in the circulation, plasma was removed from a predetermined volume of whole blood collected into tubes containing ethylenediaminetetraacetic acid anticoagulant. […] A minimum of 20,000 propidium iodide negative live cell events were collected on the Gallios flow cytometer and analyzed with the Kaluza software, version 2.1 (Beckman Coulter, Brea, Calif.). […]

NC1=NC2N=CC(CNc3ccc(C(=O)N[C@@H](CCC(=O)NCCNC(=S)Nc4ccc(-c5c6ccc(=O)cc-6oc6cc(O)ccc56)c(C(=O)O)c4)C(=O)O)cc3)=NC2C(=O)N1 (stereo partly drawn) [EC17, FA-(γ)-ethylenediamine-FITC]
requirement of EC17 binding for target cell kill [1]: required for cell kill | onset of tumor response (MDA-MB-231 tumor; EC17 500 nmol/kg weekly, ~4.8 million E2-CAR-T cells): started to respond after the second EC17 dose | body weight loss (MDA-MB-231 tumor; after EC17 administration, especially after the third dose): mild body weight loss
